Test results reported in US12540118B2, “Dendrene amide compound, bactericide and use thereof” (Jiangsu Flag Chemical Industry Co., Ltd., priority 2020, dated 2026).

Columns and labels:
succinate dehydrogenase = biological target: T1, succinate dehydrogenase (Sus scrofa, UniProt A5GZW8+D0VWV4+Q007T0); assay: Enzyme activity assay, succinate dehydrogenase (DCIP reduction); type: biochemical, porcine; conditions: read-out: Inhibitors (10 μM, SQR)
T1 construct: isolated from porcine hearts; from tissue; host or cells: porcine heart
T1 sequence (Q0QF01 43-664 partner): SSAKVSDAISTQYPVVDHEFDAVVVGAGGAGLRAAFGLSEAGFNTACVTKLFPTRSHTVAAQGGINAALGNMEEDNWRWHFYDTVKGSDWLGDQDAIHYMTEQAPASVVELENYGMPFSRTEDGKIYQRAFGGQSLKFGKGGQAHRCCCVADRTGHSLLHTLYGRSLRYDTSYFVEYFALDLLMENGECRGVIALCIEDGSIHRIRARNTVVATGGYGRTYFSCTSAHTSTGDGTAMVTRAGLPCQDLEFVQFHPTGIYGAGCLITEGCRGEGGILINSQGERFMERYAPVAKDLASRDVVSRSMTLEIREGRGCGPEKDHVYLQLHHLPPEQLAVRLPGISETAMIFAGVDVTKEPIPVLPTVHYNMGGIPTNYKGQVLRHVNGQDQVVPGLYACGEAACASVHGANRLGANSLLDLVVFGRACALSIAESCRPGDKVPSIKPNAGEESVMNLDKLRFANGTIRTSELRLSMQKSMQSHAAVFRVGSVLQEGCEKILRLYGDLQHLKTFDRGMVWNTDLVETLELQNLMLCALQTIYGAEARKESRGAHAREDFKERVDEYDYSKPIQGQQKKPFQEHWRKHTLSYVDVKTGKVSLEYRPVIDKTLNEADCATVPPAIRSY
T1 sequence (Q007T0 29-280): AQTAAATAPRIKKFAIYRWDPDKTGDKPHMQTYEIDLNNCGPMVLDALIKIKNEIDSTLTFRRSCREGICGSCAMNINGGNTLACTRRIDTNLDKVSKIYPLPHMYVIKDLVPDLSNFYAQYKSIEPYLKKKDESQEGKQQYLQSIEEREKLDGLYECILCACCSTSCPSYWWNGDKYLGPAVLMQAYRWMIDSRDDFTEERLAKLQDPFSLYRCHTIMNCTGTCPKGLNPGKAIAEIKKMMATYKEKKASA
T1 sequence (D0VWV4 30-169): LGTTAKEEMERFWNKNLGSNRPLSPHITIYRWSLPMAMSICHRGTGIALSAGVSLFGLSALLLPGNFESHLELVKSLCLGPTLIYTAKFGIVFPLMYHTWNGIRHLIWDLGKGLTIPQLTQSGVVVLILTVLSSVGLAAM
T1 sequence (A5GZW8 57-159 limits assumed): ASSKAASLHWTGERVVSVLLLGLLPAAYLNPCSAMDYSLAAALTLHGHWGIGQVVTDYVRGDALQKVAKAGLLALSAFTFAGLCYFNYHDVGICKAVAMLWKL
Procedure: The inhibitory activities of control agents and target compounds on succinate dehydrogenase are determined.
The enzyme used in this test example is succinate dehydrogenase, which is isolated from porcine hearts.
The test method comprises the following steps: The total volume of the system is 1.8 ml, and the system contained 100 mM Na2HPO4—NaH2PO4 buffer (pH=7.4), 0.3 mM EDTA, 20 mM sodium succinate, 53 μM DCIP (2,6-dichloroindophenol sodium), and 2 nM succinate dehydrogenase. Thermostatic waterbath at 23° C. and magnetic stirring at 600 rpm. The decrease in the light absorption of the substrate DCIP is monitored at a wavelength of 600 nm and experimental points in a linear range are collected. Control substrate consumption not more than 5% of the experimental points. The molar extinction coefficient of DCIP is 21 mM^−1 cm^−1. And calculating the reduction yield of the DCIP in the reaction time, fitting a linear slope, and deducting the baseline slope to obtain the initial reaction speed.

Erysiphe graminis = Erysiphe graminis potting method; type: in vivo; conditions: Blumeria graminis, read-out: Erysiphe graminis control rating; for pest or weed control at 100 µg/mL: 100 mg/L
Procedure: The fungicidal activity of the control agents and target compounds are determined. The test and investigation method refers to SOP-SC-1116 Erysiphe graminis potting method in disinfectant rolls written by KANGZHUO and GUBAOGEN in “Standard operation specification for testing biological activity of pesticides”.

Sphaerotheca fuliginea = Sphaerotheca fuliginea potting method; type: in vivo; conditions: Podosphaera fuliginea; 100 mg/L; read-out: Sphaerotheca fuliginea control rating
Procedure: The fungicidal activity of the control agents and target compounds are determined. The test and investigation method refers to SOP-SC-1101 sphaerotheca fuliginea potting method in disinfectant rolls written by KANGZHUO and GUBAOGEN in “Standard operation specification for testing biological activity of pesticides”.

SMILES	inhibition at 10 µM (succinate dehydrogenase)	pest or weed control at 100 µg/mL (Erysiphe graminis)	pest or weed control at 100 µg/mL (Sphaerotheca fuliginea)	pest or weed control at 6.25 µg/mL (Erysiphe graminis; 6.25 mg/L)	pest or weed control at 25 µg/mL (Erysiphe graminis; 25 mg/L)
C=C(CN(C(=O)c1c(C(F)F)nn(C)c1F)C1CC1)c1cccc(Cl)c1Cl [Compound 8]	> 90%	80 to 100%	80 to 100%		
C=C(c1cccc(Cl)c1)C(C)N(C(=O)c1c(C(F)F)nn(C)c1F)C1CC1 (centres unmarked) [Compound 57]	> 90%	80 to 100%	80 to 100%		
CC(C(=C(Cl)Cl)c1ccccc1Cl)N(C(=O)c1c(C(F)F)nn(C)c1F)C1CC1 (centres unmarked) [Compound 168]	> 90%	80 to 100%	80 to 100%		
CC(C(=C(Cl)Cl)c1ccccc1F)N(C(=O)c1c(C(F)F)nn(C)c1F)C1CC1 (centres unmarked) [Compound 176]	> 90%	80 to 100%	80 to 100%		
C=C(c1cc(C(F)(F)F)ccc1Cl)C(C)N(C(=O)c1c(C(F)F)nn(C)c1F)C1CC1 (centres unmarked) [Compound 100]	> 90%	80 to 100%	80 to 100%		
Cc1cc(C)c(C(CN(C(=O)c2c(C(F)F)nn(C)c2F)C2CC2)=C(Cl)Cl)c(C)c1 [Compound 143]	> 90%	80 to 100%	80 to 100%		
C=C(CN(C(=O)c1c(C(F)F)nn(C)c1F)C1CC1)c1ccc(F)cc1 [Compound 22]	> 90%	80 to 100%	80 to 100%		
Cn1nc(C(F)F)c(C(=O)N(CC(=C(Cl)Cl)c2c(F)cccc2F)C2CC2)c1F [Compound 128]	> 90%	80 to 100%	80 to 100%		
C=C(CN(C(=O)c1c(C(F)F)nn(C)c1F)C1CC1)c1ccc(Cl)cc1F [Compound 42]	> 90%	80 to 100%	80 to 100%		
C=C(CN(C(=O)c1c(C(F)F)nn(C)c1F)C1CC1)c1ccc(Cl)c(Cl)c1 [Compound 10]	> 90%	80 to 100%	80 to 100%		
C=C(c1ccc(F)cc1)C(C)N(C(=O)c1c(C(F)F)nn(C)c1F)C1CC1 (centres unmarked) [Compound 68]	> 90%	80 to 100%	80 to 100%		
Cn1nc(C(F)F)c(C(=O)N(CC(=C(Cl)Cl)c2c(Br)cc(Br)cc2Br)C2CC2)c1F [Compound 137]	> 90%	80 to 100%	80 to 100%		
C=C(CN(C(=O)c1c(C(F)F)nn(C)c1F)C1CC1)c1cccc(F)c1 [Compound 21]	> 90%	80 to 100%	70 to 80%		
C=C(CN(C(=O)c1c(C(F)F)nn(C)c1F)C1CC1)c1cc(C)ccc1C [Compound 34]	> 90%	80 to 100%	80 to 100%	70 to 80%	80 to 100%
Cn1nc(C(F)F)c(C(=O)N(CC(=C(Cl)Cl)c2cc(Cl)ccc2Cl)C2CC2)c1F [Compound 119]	> 90%	80 to 100%	80 to 100%		
C=C(CN(C(=O)c1c(C(F)F)nn(C)c1F)C1CC1)c1ccc(C)cc1 [Compound 4]	> 90%	80 to 100%	< 70%		
CC(C(=C(Cl)Cl)c1cc(C(F)(F)F)ccc1Cl)N(C(=O)c1c(C(F)F)nn(C)c1F)C1CC1 (centres unmarked) [Compound 209]	> 90%	80 to 100%	80 to 100%		
C=C(CN(C(=O)c1c(C(F)F)nn(C)c1F)C1CC1)c1ccc(Cl)cc1 [Compound 17]	> 90%	80 to 100%	80 to 100%		
